Assay results from US10065965B2, “Imidazo[1,2-B][1,2,4]triazine derivatives as antiparasitic agents” (GlaxoSmithKline Intellectual Property Development Limited, priority 2015, dated 2018).
In brackets after ≈: the same amount, converted by molar mass.

Experiments:
[1] = Assay 4 solubility assay, ChemiLuminescent Nitrogen Detection (CLND); assay type: physicochemical; details: phosphate buffered saline, pH 7.4, aqueous buffer, kinetic from dmso stock, pH 7.4 PBS, from 10 mM DMSO stock, 1 h at room temperature
Procedure, shortened: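 Kinetic solubility: 10 mM DMSO stock diluted 5 µl into 100 µl pH 7.4 PBS, incubated 1 h at room temperature, then filtered. Filtrate quantified by HPLC with chemiluminescent nitrogen detection against ondansetron and caffeine standards; solubility in µM by linear-regression calibration.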

[2] = Assay 2 Trypanosoma cruzi intracellular assay, cytotoxicity against VERO cells; assay type: cell-based; details: African green monkey, Vero cells infected with T. cruzi trypomastigotes, total number of Vero cells, minimum threshold 4.3, read-out: cytotoxicity against VERO cells, pEC50 (converted)
Procedure: Compounds were dispensed into black 384-well assay plates (Corning) by acoustic dispensing (LabCyte ECHO). For potency determinations, ten-point one in three dilution curves were generated, with a top concentration of 50 μM. Vero cells were infected overnight with T. cruzi trypomastigotes in T225 tissue culture flasks at a multiplicity of infection of 5. Next, any remaining free trypomastigotes were washed away with serum free MEM media and the infected Vero cells were harvested by trypsinisation. The infected Vero cells were then plated into 384-well plates containing the compounds to be tested, at 4000 cells per well in MEM media with 1% FCS. After 72 h incubation at 37° C. in presence of 5% CO2, the plates were fixed with 4% formaldehyde for 20 minutes at room temperature and stained with 5 μg/ml Hoechst 33342. The plates were imaged on a Perkin Elmer Operetta high-content imaging system using a 20× objective. Images were analysed using the Columbus system (Perkin Elmer). The image analysis algorithm first identified the Vero nuclei followed by demarcation of the cytoplasm and identification of intracellular amastigotes. This algorithm reported mean number of parasites per Vero cell and total number of Vero cells.

Leishmania donovani = assay: Assay 1 intramacrophage Leishmania donovani assay (potency readout); assay type: cell-based; details: amastigotes in PMA-treated THP-1 macrophages, 96 h, average number of amastigotes per cell, minimum threshold 4.3, read-out: pEC50 value against Leishmania donovani (converted)
Procedure, shortened: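 THP-1 cells were differentiated with 20 nM PMA for 75 h, infected with amastigotes at MOI 5 for 16 h, then exposed to compound for 96 h in a ten-point 1:3 series from a 50 μM top concentration. Cells were fixed, DAPI/CellMask-stained and imaged by high-content microscopy. pEC50 was derived from amastigotes per cell and from THP-1 count.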

O=C(Nc1ccc(F)c(-c2cn3nc(N4CCOCC4)cnc3n2)c1)N1CCCC1 [Example 1, N-(4-fluoro-3-(2-morpholinoimidazo[1,2-b][1,2,4]triazin-6-yl)phenyl)pyrrolidine-1-carboxamide]
solubility at 1 h [1]: 100 to 416 µM (≈ 41.1 to 171 µg/mL) | EC50 at 72 h [2]: > 50100 nM | EC50 (Leishmania donovani): 631 nM
